Test results reported in patent US8959984B2, “Proteome-wide quantification of small molecule binding to cellular target proteins” (priority 2007, dated 2015).

Tests used:
Test in all cases: binding to VI16742 beads (HeLa lysate, SILAC MS)
[1] = biological target: T1, CHED (CDC2L5, IPI00456970) (Homo sapiens, UniProt Q14004)
T1 construct: endogenous in cells; host or cells: HeLa S3 cell lysate
Excerpt: (§1) In an alternative implementation of the chemical proteomic approach according to the invention, the broadly-selective pyrido[2,3-d]pyrimidine-based kinase inhibitor VI16742 has been used for affinity capture (FIG. 10a). […] As shown by gene ontology analysis, the corresponding molecular functions were highly over-represented in proteins specifically retained by the inhibitor resin (FIG. 10b).

[2] = biological target: T2, OSR1 (OXSR1, IPI00010080) (Homo sapiens, UniProt O95747)
T2 construct: endogenous in cells; host or cells: HeLa S3
T2 sequence (O95747 whole entry): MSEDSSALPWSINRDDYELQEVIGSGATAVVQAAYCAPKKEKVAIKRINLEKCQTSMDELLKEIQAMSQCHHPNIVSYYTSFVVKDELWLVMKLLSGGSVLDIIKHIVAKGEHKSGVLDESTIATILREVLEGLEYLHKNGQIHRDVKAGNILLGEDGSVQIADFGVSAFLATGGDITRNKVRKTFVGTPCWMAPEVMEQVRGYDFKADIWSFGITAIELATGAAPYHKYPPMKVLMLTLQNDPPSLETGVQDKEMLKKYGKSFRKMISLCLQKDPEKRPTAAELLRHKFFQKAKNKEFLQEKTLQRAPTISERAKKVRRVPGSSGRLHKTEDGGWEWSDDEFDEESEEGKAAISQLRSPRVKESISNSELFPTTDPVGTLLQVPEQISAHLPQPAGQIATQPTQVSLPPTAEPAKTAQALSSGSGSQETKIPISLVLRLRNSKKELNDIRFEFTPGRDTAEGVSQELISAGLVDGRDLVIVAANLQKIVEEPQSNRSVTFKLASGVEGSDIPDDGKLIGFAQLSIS
Excerpt: as §1

DPH5 (IPI00375824) = biological target: T3, DPH5 (IPI00375824) (Homo sapiens, UniProt Q9H2P9)
T3 construct: endogenous in cells; host or cells: HeLa S3
T3 sequence (Q9H2P9 1-285): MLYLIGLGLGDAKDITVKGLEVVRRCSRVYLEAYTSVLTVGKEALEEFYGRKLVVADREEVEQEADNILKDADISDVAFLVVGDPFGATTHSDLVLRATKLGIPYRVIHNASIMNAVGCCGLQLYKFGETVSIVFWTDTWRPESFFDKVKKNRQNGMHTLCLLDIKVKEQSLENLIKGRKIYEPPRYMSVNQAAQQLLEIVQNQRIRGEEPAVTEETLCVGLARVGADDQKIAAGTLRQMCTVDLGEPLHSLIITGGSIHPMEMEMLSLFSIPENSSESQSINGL
Excerpt: as §1

[3] = biological target: T4, TNIK/ZC2 (TNIK, IPI00514275) (Homo sapiens, UniProt Q9UKE5)
T4 construct: endogenous in cells; host or cells: HeLa S3
T4 sequence (Q9UKE5 whole entry): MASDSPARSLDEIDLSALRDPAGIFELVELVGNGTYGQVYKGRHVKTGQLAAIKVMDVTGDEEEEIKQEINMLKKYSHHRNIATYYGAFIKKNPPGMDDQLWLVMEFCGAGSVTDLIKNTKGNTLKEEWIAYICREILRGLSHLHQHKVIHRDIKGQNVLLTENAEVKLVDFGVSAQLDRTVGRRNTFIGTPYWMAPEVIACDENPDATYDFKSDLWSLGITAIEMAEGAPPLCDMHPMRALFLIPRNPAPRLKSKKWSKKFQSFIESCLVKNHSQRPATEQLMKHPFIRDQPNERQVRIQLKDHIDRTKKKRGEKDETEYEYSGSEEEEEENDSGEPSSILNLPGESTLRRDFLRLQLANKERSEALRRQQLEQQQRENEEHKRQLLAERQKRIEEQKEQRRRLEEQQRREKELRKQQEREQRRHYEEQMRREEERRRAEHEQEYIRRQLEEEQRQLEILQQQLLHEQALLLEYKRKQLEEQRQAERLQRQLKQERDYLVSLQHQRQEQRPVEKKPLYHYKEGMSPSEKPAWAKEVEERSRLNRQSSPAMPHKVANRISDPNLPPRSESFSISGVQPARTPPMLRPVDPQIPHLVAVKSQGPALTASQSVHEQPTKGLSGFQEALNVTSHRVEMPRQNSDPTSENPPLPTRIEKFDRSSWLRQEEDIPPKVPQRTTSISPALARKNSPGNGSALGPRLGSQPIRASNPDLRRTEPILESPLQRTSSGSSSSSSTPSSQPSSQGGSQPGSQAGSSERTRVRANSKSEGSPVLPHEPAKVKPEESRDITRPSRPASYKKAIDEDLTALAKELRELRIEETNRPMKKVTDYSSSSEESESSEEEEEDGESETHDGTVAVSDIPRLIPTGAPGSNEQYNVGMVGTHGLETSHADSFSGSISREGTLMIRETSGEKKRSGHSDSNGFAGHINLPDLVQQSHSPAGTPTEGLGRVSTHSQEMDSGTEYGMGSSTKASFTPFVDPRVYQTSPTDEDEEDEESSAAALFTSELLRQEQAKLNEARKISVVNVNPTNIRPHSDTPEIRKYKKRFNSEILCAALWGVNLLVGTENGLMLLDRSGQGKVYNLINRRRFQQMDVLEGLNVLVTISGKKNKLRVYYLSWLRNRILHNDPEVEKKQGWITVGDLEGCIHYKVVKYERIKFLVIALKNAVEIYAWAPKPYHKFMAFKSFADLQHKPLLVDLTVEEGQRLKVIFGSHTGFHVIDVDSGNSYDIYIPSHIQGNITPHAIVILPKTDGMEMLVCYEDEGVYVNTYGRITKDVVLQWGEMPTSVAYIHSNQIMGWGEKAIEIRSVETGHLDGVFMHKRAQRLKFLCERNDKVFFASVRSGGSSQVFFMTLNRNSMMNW
Excerpt: as §1

[4] = biological target: T5, IKKb (IKBKB, IPI00024709) (Homo sapiens, UniProt O14920)
T5 construct: endogenous in cells; host or cells: HeLa S3
T5 sequence (O14920 1-756): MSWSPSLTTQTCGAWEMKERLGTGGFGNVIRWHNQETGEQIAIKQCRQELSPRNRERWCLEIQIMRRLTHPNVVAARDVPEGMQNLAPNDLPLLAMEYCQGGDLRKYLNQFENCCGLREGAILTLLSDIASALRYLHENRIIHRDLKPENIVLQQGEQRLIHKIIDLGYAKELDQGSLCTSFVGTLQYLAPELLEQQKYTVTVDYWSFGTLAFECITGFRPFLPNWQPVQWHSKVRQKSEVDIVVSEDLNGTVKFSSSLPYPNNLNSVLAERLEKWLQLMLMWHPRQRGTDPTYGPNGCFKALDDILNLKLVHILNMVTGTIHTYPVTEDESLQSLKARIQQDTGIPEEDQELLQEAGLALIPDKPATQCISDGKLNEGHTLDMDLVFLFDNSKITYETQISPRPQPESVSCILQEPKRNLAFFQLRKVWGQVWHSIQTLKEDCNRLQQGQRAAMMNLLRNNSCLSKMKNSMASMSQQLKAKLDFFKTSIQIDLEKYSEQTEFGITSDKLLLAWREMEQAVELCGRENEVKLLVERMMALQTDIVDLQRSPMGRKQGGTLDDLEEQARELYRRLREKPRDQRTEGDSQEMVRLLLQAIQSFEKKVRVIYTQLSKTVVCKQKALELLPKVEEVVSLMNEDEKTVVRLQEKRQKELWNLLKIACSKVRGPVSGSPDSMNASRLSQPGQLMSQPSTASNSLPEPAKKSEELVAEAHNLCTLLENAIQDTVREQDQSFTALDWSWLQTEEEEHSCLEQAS
Excerpt: as §1

[5] = biological target: T6, TAO1 (TAOK1, IPI00002232) (Homo sapiens, UniProt Q7L7X3)
T6 construct: endogenous in cells; host or cells: HeLa S3
T6 sequence (Q7L7X3 1-1001): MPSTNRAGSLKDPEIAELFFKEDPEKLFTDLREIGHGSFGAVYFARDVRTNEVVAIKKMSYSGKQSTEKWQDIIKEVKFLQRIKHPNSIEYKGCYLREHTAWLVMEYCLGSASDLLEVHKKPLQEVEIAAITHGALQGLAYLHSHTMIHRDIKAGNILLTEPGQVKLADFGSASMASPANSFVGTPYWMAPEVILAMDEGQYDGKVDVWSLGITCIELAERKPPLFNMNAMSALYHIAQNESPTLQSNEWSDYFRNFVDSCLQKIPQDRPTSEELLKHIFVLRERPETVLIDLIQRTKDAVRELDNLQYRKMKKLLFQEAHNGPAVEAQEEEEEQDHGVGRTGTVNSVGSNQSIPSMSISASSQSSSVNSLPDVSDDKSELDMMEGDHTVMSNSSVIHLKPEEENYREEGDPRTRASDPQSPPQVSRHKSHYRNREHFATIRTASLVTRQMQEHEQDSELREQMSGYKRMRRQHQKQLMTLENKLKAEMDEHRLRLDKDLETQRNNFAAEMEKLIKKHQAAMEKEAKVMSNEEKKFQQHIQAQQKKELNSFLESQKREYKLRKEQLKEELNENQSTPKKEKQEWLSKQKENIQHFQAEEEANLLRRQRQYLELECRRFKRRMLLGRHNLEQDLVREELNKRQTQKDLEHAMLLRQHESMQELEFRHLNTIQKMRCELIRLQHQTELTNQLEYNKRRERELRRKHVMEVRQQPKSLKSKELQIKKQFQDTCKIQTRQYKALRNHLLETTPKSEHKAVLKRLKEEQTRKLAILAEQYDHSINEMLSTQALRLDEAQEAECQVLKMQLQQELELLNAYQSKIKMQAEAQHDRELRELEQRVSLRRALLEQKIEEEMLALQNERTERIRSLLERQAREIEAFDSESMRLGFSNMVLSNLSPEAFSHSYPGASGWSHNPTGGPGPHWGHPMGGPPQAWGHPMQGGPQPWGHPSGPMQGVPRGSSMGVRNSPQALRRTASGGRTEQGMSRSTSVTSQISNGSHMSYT
Excerpt: as §1

[6] = biological target: T7, MRCKb (CDC42BPB, IPI00477763) (Homo sapiens, UniProt Q9Y5S2)
T7 construct: endogenous in cells; host or cells: HeLa S3
T7 sequence (Q9Y5S2 whole entry): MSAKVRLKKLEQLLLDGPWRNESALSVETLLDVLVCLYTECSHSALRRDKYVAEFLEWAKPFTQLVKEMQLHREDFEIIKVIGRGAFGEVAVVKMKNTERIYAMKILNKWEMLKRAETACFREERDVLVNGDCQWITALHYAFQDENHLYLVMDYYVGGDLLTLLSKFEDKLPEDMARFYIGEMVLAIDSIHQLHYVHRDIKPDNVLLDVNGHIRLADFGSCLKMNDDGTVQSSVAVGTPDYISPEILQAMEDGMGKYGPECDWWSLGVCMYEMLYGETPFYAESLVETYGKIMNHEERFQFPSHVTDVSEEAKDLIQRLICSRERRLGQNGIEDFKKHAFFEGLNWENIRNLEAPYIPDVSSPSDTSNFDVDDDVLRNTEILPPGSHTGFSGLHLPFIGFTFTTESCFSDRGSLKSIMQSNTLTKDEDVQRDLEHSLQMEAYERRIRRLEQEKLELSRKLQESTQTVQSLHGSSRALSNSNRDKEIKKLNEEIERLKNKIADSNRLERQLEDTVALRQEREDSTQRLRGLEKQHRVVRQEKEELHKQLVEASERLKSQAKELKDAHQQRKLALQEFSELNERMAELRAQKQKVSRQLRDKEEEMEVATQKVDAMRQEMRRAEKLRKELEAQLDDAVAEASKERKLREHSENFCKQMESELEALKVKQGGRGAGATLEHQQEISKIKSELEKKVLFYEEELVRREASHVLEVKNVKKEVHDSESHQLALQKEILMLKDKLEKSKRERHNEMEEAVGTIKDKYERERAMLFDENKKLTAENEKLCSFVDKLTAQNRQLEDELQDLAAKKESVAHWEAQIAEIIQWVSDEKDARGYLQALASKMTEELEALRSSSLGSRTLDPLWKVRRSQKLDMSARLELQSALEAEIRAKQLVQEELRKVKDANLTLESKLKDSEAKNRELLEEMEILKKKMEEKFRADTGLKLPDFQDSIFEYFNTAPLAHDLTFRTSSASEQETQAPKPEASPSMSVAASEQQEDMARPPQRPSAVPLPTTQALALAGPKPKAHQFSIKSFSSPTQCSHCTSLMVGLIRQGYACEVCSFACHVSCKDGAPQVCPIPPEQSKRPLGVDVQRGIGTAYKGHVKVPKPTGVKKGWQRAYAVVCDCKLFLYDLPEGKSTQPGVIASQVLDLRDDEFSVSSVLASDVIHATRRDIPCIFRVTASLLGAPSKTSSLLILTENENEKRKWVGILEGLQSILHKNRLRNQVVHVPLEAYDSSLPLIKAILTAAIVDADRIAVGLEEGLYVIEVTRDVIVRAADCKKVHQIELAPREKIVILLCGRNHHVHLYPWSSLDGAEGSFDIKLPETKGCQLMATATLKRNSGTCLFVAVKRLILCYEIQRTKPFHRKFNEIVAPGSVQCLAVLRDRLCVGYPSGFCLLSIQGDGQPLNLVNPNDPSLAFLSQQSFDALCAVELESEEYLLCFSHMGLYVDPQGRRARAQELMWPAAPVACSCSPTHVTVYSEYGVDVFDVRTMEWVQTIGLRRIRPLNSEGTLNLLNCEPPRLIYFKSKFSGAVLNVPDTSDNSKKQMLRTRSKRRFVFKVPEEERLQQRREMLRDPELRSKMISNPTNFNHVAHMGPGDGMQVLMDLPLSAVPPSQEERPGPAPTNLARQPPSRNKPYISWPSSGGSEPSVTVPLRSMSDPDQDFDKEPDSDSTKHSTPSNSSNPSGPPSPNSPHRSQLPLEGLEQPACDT
Excerpt: as §1

[7] = control beads vs first incubation

T1 sequence (Q14004 whole entry): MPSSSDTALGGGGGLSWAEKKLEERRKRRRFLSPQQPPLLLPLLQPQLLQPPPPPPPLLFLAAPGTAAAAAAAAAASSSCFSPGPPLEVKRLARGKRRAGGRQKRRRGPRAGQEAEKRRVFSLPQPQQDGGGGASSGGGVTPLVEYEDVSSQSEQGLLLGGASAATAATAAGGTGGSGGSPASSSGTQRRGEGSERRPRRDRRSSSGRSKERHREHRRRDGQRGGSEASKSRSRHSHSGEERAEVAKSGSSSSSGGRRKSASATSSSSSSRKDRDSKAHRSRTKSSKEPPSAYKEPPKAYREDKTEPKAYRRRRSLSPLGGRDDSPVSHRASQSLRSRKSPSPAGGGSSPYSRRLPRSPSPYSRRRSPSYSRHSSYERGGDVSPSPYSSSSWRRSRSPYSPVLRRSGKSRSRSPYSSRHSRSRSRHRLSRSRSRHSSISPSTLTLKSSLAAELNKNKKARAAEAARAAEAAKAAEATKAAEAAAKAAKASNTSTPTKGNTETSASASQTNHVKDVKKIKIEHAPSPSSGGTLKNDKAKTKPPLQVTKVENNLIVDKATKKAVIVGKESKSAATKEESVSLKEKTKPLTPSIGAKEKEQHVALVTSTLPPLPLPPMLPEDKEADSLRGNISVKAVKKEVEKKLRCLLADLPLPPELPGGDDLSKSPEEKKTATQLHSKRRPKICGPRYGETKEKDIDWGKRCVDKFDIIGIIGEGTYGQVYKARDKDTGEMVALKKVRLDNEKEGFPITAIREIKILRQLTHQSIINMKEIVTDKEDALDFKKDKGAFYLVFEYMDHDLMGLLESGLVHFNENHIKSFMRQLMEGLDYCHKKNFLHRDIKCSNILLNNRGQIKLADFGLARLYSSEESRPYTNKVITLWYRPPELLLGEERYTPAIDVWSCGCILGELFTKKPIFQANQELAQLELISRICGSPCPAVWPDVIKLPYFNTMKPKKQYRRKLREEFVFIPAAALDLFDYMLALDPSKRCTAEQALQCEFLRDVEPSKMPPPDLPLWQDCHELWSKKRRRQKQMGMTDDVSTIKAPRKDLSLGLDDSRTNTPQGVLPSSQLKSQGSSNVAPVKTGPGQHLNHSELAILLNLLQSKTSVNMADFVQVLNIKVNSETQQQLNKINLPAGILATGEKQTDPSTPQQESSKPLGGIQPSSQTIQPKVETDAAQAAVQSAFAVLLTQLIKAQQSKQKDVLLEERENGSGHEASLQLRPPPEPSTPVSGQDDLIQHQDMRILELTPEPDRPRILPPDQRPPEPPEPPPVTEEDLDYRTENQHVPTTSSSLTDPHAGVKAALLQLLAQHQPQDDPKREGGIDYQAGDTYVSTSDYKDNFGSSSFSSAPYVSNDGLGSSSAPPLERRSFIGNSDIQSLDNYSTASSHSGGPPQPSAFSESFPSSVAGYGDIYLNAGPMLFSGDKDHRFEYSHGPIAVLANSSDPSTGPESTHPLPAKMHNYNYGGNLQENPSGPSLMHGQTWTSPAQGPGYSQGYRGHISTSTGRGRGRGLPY

Q: What does the source list for `CC(C)n1c(=O)ccc2cnc(Nc3ccc(OCCN)cc3)nc21` [V16742]?
A: r (3 MG/1 MG LYSATE) ([1]; 3 mg vs 1 mg lysate): 5.31; r (5 h/2.5 h INC. TIME) ([1]; 5 h vs 2.5 h incubation time): 1.42; rAVERAGE (CTRL/1 INC) [1, 7]: 0.05; Ki ([1]; immobilized VI16742): 84.6 µM; rAVERAGE (2 INC/1 INC) ([1]; second vs first incubation): 0.62; rAVERAGE (CTRL/1 INC) [2, 7]: 0.05; Ki ([2]; immobilized VI16742): 207 µM; rAVERAGE (2 INC/1 INC) ([2]; second vs first incubation): 0.80; r (5 h/2.5 h INC. TIME) (DPH5 (IPI00375824); 5 h vs 2.5 h incubation time): 2.72; rAVERAGE (CTRL/1 INC) (DPH5 (IPI00375824); [7]): 0.03; Ki (DPH5 (IPI00375824); immobilized VI16742): 211 µM; rAVERAGE (2 INC/1 INC) (DPH5 (IPI00375824); second vs first incubation): 0.80; r (5 h/2.5 h INC. TIME) ([3]; 5 h vs 2.5 h incubation time): 1.27; rAVERAGE (CTRL/1 INC) [3, 7]: 0.19; Ki ([3]; immobilized VI16742): 108 µM; rAVERAGE (2 INC/1 INC) ([3]; second vs first incubation): 0.67; rAVERAGE (CTRL/1 INC) [4, 7]: 0.06; Ki ([4]; immobilized VI16742): 201 µM; rAVERAGE (2 INC/1 INC) ([4]; second vs first incubation): 0.79; r (3 MG/1 MG LYSATE) ([5]; 3 mg vs 1 mg lysate): 2.64; r (5 h/2.5 h INC. TIME) ([5]; 5 h vs 2.5 h incubation time): 1.02; rAVERAGE (CTRL/1 INC) [5, 7]: 0.06; Ki ([5]; immobilized VI16742): 162 µM; rAVERAGE (2 INC/1 INC) ([5]; second vs first incubation): 0.76; r (3 MG/1 MG LYSATE) ([6]; 3 mg vs 1 mg lysate): 2.35; r (5 h/2.5 h INC. TIME) ([6]; 5 h vs 2.5 h incubation time): 1.34; rAVERAGE (CTRL/1 INC) [6, 7]: 0.06; Ki ([6]; immobilized VI16742): 301 µM; rAVERAGE (2 INC/1 INC) ([6]; second vs first incubation): 0.85
